# Columns and labels:
# Assay type in all cases: cell-based
# [1] = test system: HCT116; test: Inhibition of cell proliferation, HCT116; conditions: Homo sapiens, HCT-116; 72 h treatment; methylene blue or CellTiter-Glo
# Experimental: (§1) II. Inhibition of Cell Proliferation by PLK1 Inhibitors.
# (§2) Exponentially growing cell lines of different tumor origins, cultured in appropriate media containing 10% fetal bovine serum at 37° C. in a 5% CO2 incubator were plated in 96 or 384-well plates. Twenty four hours post-plating, cells were treated with different concentrations of test compounds ranging from 20 μM to 0.04 nM. Several wells were left untreated as a control. Seventy two hours post-treatment, cell numbers were determined using different techniques; 100 μl per well of methylene blue (Sigma M9140) (0.5% in 50:50 Ethanol:water), or 10-100 μl per well of CellTiter-Glo (Promega #G7573), depending on well size. For methylene blue staining, stain was incubated at room temperature for 30 minutes before plates were rinsed and dye solubilized in 1% N-lauroyl sarcosine, sodium salt, (Sigma L5125, in PBS). Plates were read on a microplate reader, measuring the OD at 620 nm. For CellTiter-Glo, plates were incubated at room temperature for 15 minutes and the chemiluminescent signal was read on the Victor V or Envison 2100 reader.
# (§3) Percent inhibition of cell growth was expressed as percent proliferation relative to 100% proliferation (control). Concentration of test compound that inhibited 50% of cell growth (IC50) was determined by 4 parameter fit of data using XLfit, (value of no cell control was substracted from all samples for background). The data are shown in Table 1 and Table 2 below and represent a compilation of several different experiments each performed using the general parameters outlined above, although minor variations may have been employed in some instances, in Table 1 and Table 2, +=IC50>1 μM; ++=IC50 0.5-1 μM: +++=IC50<0.5 μM.
# [2] = test system: SKOV-3; test: Inhibition of cell proliferation, SKOV-3; conditions: Homo sapiens, SK-OV-3; Ovarian; 72 h; methylene blue or CellTiter-Glo
# Experimental: as §1, §2, §3
# [3] = test system: P388; test: Inhibition of cell proliferation, P388; conditions: Mouse leukemia, 72 h, methylene blue or CellTiter-Glo
# Experimental: as §1, §2, §3
# [4] = test system: MX-1; test: Inhibition of cell proliferation, MX-1; conditions: Homo sapiens, MX1; Breast; 72 h; methylene blue or CellTiter-Glo
# Experimental: as §1, §2, §3
# [5] = test system: COLO205; test: Inhibition of cell proliferation, COLO205; conditions: Homo sapiens, COLO 205; Colon; 72 h; methylene blue or CellTiter-Glo
# Experimental: as §1, §2, §3
# [6] = test system: HT29; test: Inhibition of cell proliferation, HT29; conditions: Homo sapiens, HT-29; Colon; 72 h; methylene blue or CellTiter-Glo
# Experimental: as §1, §2, §3
Compound,IC50 [1] [nM],other results
"C[C@@H](Oc1cc(-n2cnc3cc(Cl)ccc32)sc1C(N)=O)c1cccc(OC2CCN(C)CC2)c1Cl [Example 3, 5-(5-Chloro-1H-benzimidazol-1-yl)-3-((1R)-1-{2-chloro-3-[(1-methylpiperidin-4-yl)oxy]phenyl}ethoxy)thiophene-2-carboxamide]",< 500,IC50 [2]: < 500 nM; IC50 [3]: < 500 nM; IC50 [4]: < 500 nM; IC50 [5]: < 500 nM; IC50 [6]: < 500 nM
"C[C@@H](Oc1cc(-n2cnc3ccccc32)sc1C(N)=O)c1cccc(OC2CCN(C)CC2)c1Cl [Example 13, 5-(1H-benzimidazol-1-yl)-3-[((1R)-1-{2-chloro-3-[(1-methyl-4-piperidinyl)oxy]phenyl}ethyl)oxy]-2-thiophenecarboxamide]",< 500,–
"C[C@@H](Oc1cc(-n2cnc3cc(Cl)ccc32)sc1C(N)=O)c1cccc(OC2CCNCC2)c1Cl [Example 8, 5-(5-Chloro-1H-benzimidazol-1-yl)-3-({(1R)-1-[2-chloro-3-(4-piperidinyloxy)phenyl]ethyl}oxy)-2-thiophenecarboxamide]",< 500,–
"C[C@@H](Oc1cc(-n2cnc3cc(-c4cnn(C)c4)ccc32)sc1C(N)=O)c1cccc(OC2CCN(CCC(F)(F)F)CC2)c1Cl [Example 30, 3-{[(1R)-1-(2-chloro-3-{[1-(3,3,3-trifluoropropyl)-4-piperidinyl]oxy}phenyl)ethyl]oxy}-5-[5-(1-methyl-1H-pyrazol-4-yl)-1H-benzimidazol-1-yl]-2-thiophenecarboxamide]",< 500,–
"C[C@@H](Oc1cc(-n2cnc3ccc(Cl)cc32)sc1C(N)=O)c1cccc(OC2CCNCC2)c1Cl [Example 52, 5-(6-Chloro-1H-benzimidazol-1-yl)-3-({(1R)-1-[2-chloro-3-(4-piperidinyloxy)phenyl}ethyl)oxy)-2-thiophenecarboxamide]",< 500,–
COc1cc2ncn(-c3cc(O[C@H](C)c4cccc(NCC5CCN(C)CC5)c4Cl)c(C(N)=O)s3)c2cc1OC [Example 2],< 500,–
"C[C@@H](Oc1cc(-n2cnc3cc(-c4cnn(C)c4)ccc32)sc1C(N)=O)c1cccc(OC2CCN(CCF)CC2)c1Cl [Example 29, 3-{[(1R)-1-(2-Chloro-3-{[1-(2-fluoroethyl)-4-piperidinyl]oxy}phenyl)ethyl]oxy}-5-[5-(1-methyl-1H-pyrazol-4-yl)-1H-benzimidazol-1-yl]-2-thiophenecarboxamide]",< 500,–
"C[C@@H](Oc1cc(-n2cnc3cc(-c4cnn(C)c4)ccc32)sc1C(N)=O)c1cccc(OC2CCN(C(=O)OC(C)(C)C)CC2)c1Cl [Example 46, 1,1-Dimethylethyl 4-({3-[(1R)-1-({2-(aminocarbonyl)-5-[5-(1-methyl-1H-pyrazol-4-yl)-1H-benzimidazol-1-yl]-3-thienyl}oxy)ethyl]-2-chlorophenyl}oxy)-1-piperidinecarboxylate]",< 500,–
"C[C@@H](Oc1cc(-n2cnc3cc(-c4cnn(C)c4)ccc32)sc1C(N)=O)c1ccc(F)c(OC2CCN(CCF)CC2)c1Cl [Example 35, 3-{[(1R)-1-(2-Chloro-4-fluoro-3-{[1-(2-fluoroethyl)-4-piperidinyl]oxy}phenyl)ethyl]oxy}-5-[5-(1-methyl-1H-pyrazol-4-yl)-1H-benzimidazol-1-y]-2-thiophenecarboxamide]",< 500,–
"C[C@@H](Oc1cc(-n2cnc3cc(Cl)ccc32)sc1C(N)=O)c1cccc(OC2CCN(CCF)CC2)c1Cl [Example 21, 5-(5-Chloro-1H-benzimidazol-1-yl)-3-{[(1R)-1-(2-chloro-3-{[1-(2-fluoroethyl)-4-piperidinyl]oxy}phenyl)ethyl]oxy}-2-thiophenecarboxamide]",< 500,–
"C[C@@H](Oc1cc(-n2cnc3cc(Cl)ccc32)sc1C(N)=O)c1cccc(OC2CCN(CCN)CC2)c1Cl [Example 22, 3-{[(1R)-1-(3-{[1-(2-aminoethyl)-4-piperidinyl]oxy}-2-chlorophenyl)ethyl]oxy}-5-(5-chloro-1H-benzimidazol-1-yl)-2-thiophenecarboxamide]",< 500,–
"Cc1cc(-c2ccc3c(c2)ncn3-c2cc(O[C@H](C)c3cccc(OC4CCNCC4)c3Cl)c(C(N)=O)s2)ccn1 [Example 49, 3-({(1R)-1-[2-Chloro-3-(4-piperidinyloxy)phenyl]ethyl}oxy)-5-[5-(2-methyl-4-pyridinyl)-1H-benzimidazol-1-yl]-2-thiophenecarboxamide]",< 500,IC50 [2]: < 500 nM; IC50 [4]: < 500 nM; IC50 [5]: < 500 nM; IC50 [6]: < 500 nM
C[C@@H](Oc1cc(-n2cnc3ccccc32)sc1C(N)=O)c1cccc(OCCN2CCN(C)CC2)c1Cl [Example 17],< 500,–

# The next lines start with results.
IC50 [1] [nM],Compound,other results
< 500,CC(Oc1cc(-n2cnc3cc(-c4cnn(C)c4)ccc32)sc1C(N)=O)c1cccc(OC2CCNCC2)c1F (racemic) [Example 75],–
> 1000,"CC(Oc1cc(-n2cnc3cc(-c4cnn(C)c4)ccc32)sc1C(N)=O)c1cccc(OC2CCNCC2)n1 (racemic) [Example 81, (±)-5-[5-(1-Methyl-1H-pyrazol-4-yl)-1H-benzimidazol-1-yl]-3-({1-[6-(4-piperidinyloxy)-2-pyridinyl]ethyl}oxy)-2-thiophenecarboxamide]",–
> 1000,CC(Oc1cc(-n2cnc3cc(-c4cnn(C)c4)ccc32)sc1C(N)=O)c1ccnc(OC2CCN(C)CC2)c1 (centres unmarked) [Example 80],–
< 500,"CC(Oc1cc(-n2cnc3cc(-c4cnn(C)c4)ccc32)sc1C(N)=O)c1cccc(OC2CCN(C)CC2)c1 (racemic) [Example 74, (±)-3-[(1-{3-[(1-methyl-4-piperidinyl)oxy]phenyl}ethyl)oxy]-5-[5-(1-methyl-1H-pyrazol-4-yl)-1H-benzimidazol-1-yl]-2-thiophenecarboxamide]",–
< 500,"C[C@@H](Oc1cc(-n2cnc3cc(F)c(Cl)cc32)sc1C(N)=O)c1cccc(OC2CCNCC2)c1Cl [Example 69, 5-(6-Chloro-5-fluoro-1H-benzimidazol-1-yl)-3-({(1R)-1-[2-chloro-3-(4-piperidinyloxy)phenyl]ethyl}oxy)-2-thiophenecarboxamide]",–
< 500,"Cc1nnc(-c2ccc3c(c2)ncn3-c2cc(O[C@H](C)c3cccc(OC4CCNCC4)c3Cl)c(C(N)=O)s2)o1 [Example 87, 3-({(1R)-1-(2-Chloro-3-(4-piperidinyloxy)phenyl]ethyl}oxy)-5-[5-(5-methyl-1,3,4-oxadiazol-2-yl)-1H-benzimidazol-1-yl]-2-thiophenecarboxamide]",–
> 1000,"Cn1cc(-c2ccc3c(c2)ncn3-c2cc(OCc3cccc(OC4CCNCC4)c3)c(C(N)=O)s2)cn1 [Example 83, 5-[5-(1-Methyl-1H-pyrazol-4-yl)-1H-benzimidazol-1-yl]-3-({[3-(4-piperidinyloxy)phenyl]methyl}oxy)-2-thiophenecarboxamide]",–
< 500,"C[C@@H](Oc1cc(-n2cnc3cc(OC(F)(F)F)ccc32)sc1C(N)=O)c1cccc(OC2CCN(C)CC2)c1Cl [Example 62, 3-[((1R)-1-{2-chloro-3-[(1-methyl-4-piperidinyl)oxy]phenyl}ethyl)oxy]-5-{5-[(trifluoromethyl)oxy]-1H-benzimidazol-1-yl}-2-thiophenecarboxamide]",–
> 1000,"C[C@@H](Oc1cc(-n2cnc3ccc(CS(C)(=O)=O)cc32)sc1C(N)=O)c1cccc(OC2CCN(C)CC2)c1Cl [Example 55, 3-[((1R)-1-(2-chloro-3-[(1-methyl-4-piperidinyl)oxy]phenyl}ethyl)oxy]-5-(6-[(methylsulfonyl)methyl]1H-benzimidazol-1-yl}-2-thiophenecarboxamide]",–
< 500,"C[C@@H](Oc1cc(-n2cnc3cc(Cl)c(Cl)cc32)sc1C(N)=O)c1cccc(OC2CCN(C)CC2)c1Cl [Example 72, 3-[((1R)-1-(2-chloro-3-[(1-methyl-4-piperidinyl)oxy]phenyl}ethyl)oxy]-5-(5,6-dichloro-1H-benzimidazol-1-yl)-2-thiophenecarboxamide]",–
> 1000,"CC(Oc1cc(-n2cnc3cc(-c4cnn(C)c4)ccc32)sc1C(N)=O)c1cc(OC2CCNCC2)ccn1 (centres unmarked) [Example 85, 5-[5-(1-Methyl-1H-pyrazol-4-yl)-1H-benzimidazol-1-yl]-3-({1-[4-(4-piperidinyloxy)-2-pyridinyl]ethyl}oxy)-2-thiophenecarboxamide]",–
> 1000,C[C@@H](Oc1cc(-n2cnc3ccc(CS(C)(=O)=O)cc32)sc1C(N)=O)c1cccc(OCC2CCCN2C)c1Cl (some centres unmarked) [Example 57],–
> 1000,C[C@@H](Oc1cc(-n2cnc3ccc(CS(C)(=O)=O)cc32)sc1C(N)=O)c1cccc(OC2CCNCC2)c1Cl [Example 54],–

# — US20100075960A1 (priority 2006, published 2010)
